# Assay results taken from patent EP1131297B1, “CERTAIN SUBSTITUTED CAPROLACTAMS, PHARMACEUTICAL COMPOSITIONS CONTAINING THEM AND THEIR USE IN TREATING TUMORS” (Novartis AG, priority 1998, dated 2000).
# Where two headings read alike, the source gives them in different places.
# What was measured:
# [1] = system: MDA-MB-435 breast carcinoma; assay: Anchorage Dependent Growth Monolayer Assay (ADGMA), MTS readout; type: cell-based; conditions: Homo sapiens, MDA-MB-435, 72 h, average ± S.D., 3-day exposure, A490
# From the text: As indicated above, all of the compounds of formula I, and their corresponding pharmaceutically acceptable acid addition salts, are anti-tumor agents and are, therefore, useful in inhibiting the growth of various lymphomas, sarcomas, carcinomas, myelomas, and leukemia cell lines. […] This assay was adapted from the 60 cell line assay used by the National Cancer Institute (NCI) with the following modifications: 1) a single cell line representative for the important tumor type, viz., MDA-MB-435 breast carcinoma was utilized; 2) a tetrazolium derivative, viz., MTS, was utilized to determine cell density.
# The ADGMA compares the number of viable cells following a 3-day exposure to a test compound relative to a number of cells present at the time the test compound was added. […] The absorbance at 490 nm (A490) of the formazan derivative is proportional to the number of viable cells. The IC50 for a test compound is the concentration of compound required to reduce the final cell number to 50% of the final control cell number. If cell proliferation is inhibited, the assay further defines compounds as cytostatic (cell number after 3-day compound incubation >cell number at time of compound addition) or cytotoxic (cell number after 3-day compound incubation <cell number at time of compound addition).
# The MDA-MB-435 breast carcinoma line was obtained from the American Type Culture Collection (ATCC) and used between passages 4-20 following thawing. MDA-MB-435 breast carcinoma was maintained and plated in DME/F12 medium containing 10% fetal bovine serum, 15 mM HEPES (pH=7.4), penicillin 100 units/mL, and streptomycin 100 µg/mL.
# Cell lines are trypsinized and counted using a Coulter counter to determine plating densities. Cells are then plated in their respective maintenance media (100 µL/well) in 96 well plates at the following densities: MDA-MB-435, 3,000 cells/well. The number of cells plates as determined in preliminary experiments, results in cell densities of 75-90% of confluency by 4 days after plating. Initial cell densities, assayed one day after plating, are roughly 0.15-0.20 absorbance units greater than the media blank. Ninety-six well plates are seeded on day 0 and the test compounds are added on day 1. A control plate is created for each cell line that receives media only in row A and cells in row B. One day following plating, test compounds are added (in a final volume of 100 µL) to the test plates. Control plates receive 10 µL MTS mixture (prepared fresh on day of addition to cell plates at a ratio of 10 µL of a 0.92 mg/mL solution of PMS to a 190 µL of a 2 mg/mL solution of MTS) and 100 µL media. A490 of control plates is read 4h after MTS addition to determine initial cell density values for each cell line. Three days after addition of test compound, 10 µL/well of MTS mixture is added to the test plates and A490 is read 4h later. A490 values for wells containing cells are corrected for media absorbance, then normalized to initial density readings to determine percent net growth. IC50 values are determined from graphs of percent net growth as a function of compound concentration. Percent net growth is calculated as (Cell + Drug A490 - Initial A490/Cell + Drug Vehicle A490 - Initial A490).
# [2] = system: MDA-MB-435 tumor xenografts; assay: Human tumor xenograft growth inhibition in athymic nude mouse model; type: in vivo, athymic (nu/nu) mice
# Protocol: The histologic tumor type employed was MDA-MB-435 breast carcinoma.
# Positive controls are carried out with doxorubicin administered 3 times per week i.v.
# Anti-tumor activity was expressed as %T/C (Δ MTV of treated group ö Δ MTV of control group X100).
# physchem = conditions: water
# [3] = 10 µmol/kg i.v., 3X/week for 3 weeks
# [4] = 33 µmol/kg i.v., 3X/week for 3 weeks
# [5] = 100 µmol/kg i.v., 3X/week for 3 weeks
# [6] = Mus musculus, MDA-MB-435, iv, 504 h, read-out: %T/C
# [7] = Mus musculus, MDA-MB-435, iv, 504 h, 10 µmol/kg i.v., 3X/week for 3 weeks, * = statistically significant (p=<0.05), read-out: %T/C
# [8] = Mus musculus, MDA-MB-435, iv, 504 h, 33 µmol/kg i.v., 3X/week for 3 weeks, * = statistically significant (p=<0.05), read-out: %T/C
# [9] = 2 mg/kg i.v., 3X/week for 3 weeks (positive control)
Structure (SMILES),IC50 [1],solubility (Water solubility),"Dead/Total [2, 3]","Δ MTV [2, 3]","Dead/Total [2, 4]","Δ MTV [2, 4]","Dead/Total [2, 5]","Δ MTV [2, 5]","response vs control in vivo at 10 µmol/kg [2, 6]","response vs control in vivo at 33 µmol/kg [2, 6]","response vs control in vivo at 100 µmol/kg [2, 6]","response vs control in vivo at 10 µmol/kg [2, 7]","response vs control in vivo at 33 µmol/kg [2, 8]",solubility (physchem),"response vs control in vivo at 100 µmol/kg ([2]; Mus musculus, MDA-MB-435, iv, 504 h, 100 µmol/kg i.v., 3X/week for 3 weeks, * = statistically significant (p=<0.05), read-out: %T/C)","Dead/Total [2, 9]","Δ MTV [2, 9]","response vs control in vivo at 2 mg/kg ([2]; Mus musculus, MDA-MB-435, iv, 504 h, 2 mg/kg i.v., 3X/week for 3 weeks (positive control), * = statistically significant (p=<0.05), read-out: %T/C)"
"CO[C@@H](C(=O)N[C@H]1CC[C@@H](OC(=O)C2CCCCC2)CNC1=O)[C@H](O)[C@@H](O)[C@H](O)/C=C/C(C)(C)C [Ex. 1, (2R, 3R, 4S, 5R, 6E)-3,4,5-trihydroxy-2-methoxy-8,8-dimethyl-N-[(3S, 6R)-hexahydro-2-oxo-6-(cyclohexylcarbonyl)oxy-2H-azepin-3-yl]non-6-enamide]",68 ± 40 nM,3700 µg/mL,0/8,107 mm^3,0/8,43 mm^3,0/8,-11 mm^3,61%,24%,-6%,–,–,–,–,–,–,–
"CO[C@@H](C(=O)N[C@H]1CC[C@@H](OC(=O)C2CCCC2)CNC1=O)[C@H](O)[C@@H](O)[C@H](O)/C=C/C(C)(C)C [Ex. 2, (2R, 3R, 4S, 5R, 6E)-3,4,5-trihydroxy-2-methoxy-8,8-dimethyl-N-[(3S, 6R)-hexahydro-2-oxo-6-(cyclopentylcarbonyl)oxy-2H-azepin-3-yl]non-6-enamide]",115 ± 40 nM,18000 µg/mL,0/8,94 mm^3,0/8,19 mm^3,–,–,–,–,–,67%,13%,–,–,–,–,–
"CO[C@@H](C(=O)N[C@H]1CC[C@@H](OC(=O)CCc2ccccc2)CNC1=O)[C@H](O)[C@@H](O)[C@H](O)/C=C/C(C)(C)C [Ex. 4, (2R, 3R, 4S, 5R, 6E)-3,4,5-trihydroxy-2-methoxy-8,8-dimethyl-N-[(3S, 6R)-hexahydro-2-oxo-6-(1-oxo-3-phenylpropoxy)-2H-azepin-3-yl]non-6-enamide]",10 ± 10 nM,–,0/8,93 mm^3,0/8,21 mm^3,0/8,-23 mm^3,–,–,–,53%,12%,800 µg/mL,-13%,–,–,–
"CCCCCCCCCCOc1ccc(C(=O)O[C@@H]2CC[C@H](NC(=O)[C@H](OC)[C@H](O)[C@@H](O)[C@H](O)/C=C/C(C)(C)C)C(=O)NC2)cc1 [Ex. 10, (2R, 3R, 4S, 5R, 6E)-3,4,5-trihydroxy-2-methoxy-8,8-dimethyl-N-[(3S, 6R)-hexahydro-2-oxo-6-([4-n-decyloxyphenyl]carbonyl)oxy-2H-azepin-3-yl]non-6-enamide]",8 ± 4 nM,–,0/8,115 mm^3,0/8,4 mm^3,–,–,–,–,–,64%,2%,–,–,–,–,–
CO[C@@H](C(=O)N[C@H]1CC[C@@H](OC(=O)/C=C/c2ccccc2)CNC1=O)[C@H](O)[C@@H](O)[C@H](O)/C=C/C(C)(C)C [Ex. 11],19 ± 5 nM,–,0/8,135 mm^3,0/8,76 mm^3,–,–,76%,43%,–,–,–,–,–,–,–,–
"CCCCCCCCCCc1ccc(C(=O)O[C@@H]2CC[C@H](NC(=O)[C@H](OC)[C@H](O)[C@@H](O)[C@H](O)/C=C/C(C)(C)C)C(=O)NC2)cc1 [Ex. 12, (2R, 3R, 4S, 5R, 6E)-3,4,5-trihydroxy-2-methoxy-8,8-dimethyl-N-[(3S, 6R)-hexahydro-2-oxo-6-([4-n-decylphenyl]carbonyl)oxy-2H-azepin-3-yl]non-6-enamide]",34 ± 46 nM,–,0/8,78 mm^3,0/8,11 mm^3,–,–,52%,7%,–,–,–,–,–,–,–,–
"COc1cccc2c1C(=O)c1c(O)c3c(c(O)c1C2=O)C[C@@](O)(C(=O)CO)C[C@@H]3O[C@H]1C[C@H](N)[C@H](O)[C@H](C)O1 [doxorubicin, reference compound]",137 ± 105 nM,–,–,–,–,–,–,–,–,–,–,–,–,–,–,0/8,74 mm^3,42%
